# Assay results from PMC11676671, “Simultaneous Down-Regulation of Dominant Cinnamoyl CoA Reductase and Cinnamyl Alcohol Dehydrogenase Dramatically Altered Lignin Content in Mulberry” (Plants, 2024).
# Tested on: T1, MaCCR1
# T1 construct: full-length CDS in pET-28a, His-tagged, expressed in E. coli BL21(DE3)
# Assay: absorbance decrease of substrate, microplate reader, non-linear fit
# Type: biochemical, Morus alba
# Text: absorbance decrease of substrate, microplate reader, non-linear fit on MaCCR1
Km (pH and temperature of the kinetic assay not given) [µM],"Km (pH and temperature of the kinetic assay not printed (optimum pH 6.0, 20 °C with feruloyl CoA)) [µM]",SMILES
160,,COc1cc(/C=C/C(=O)SCCNC(=O)CCNC(=O)[C@H](O)C(C)(C)COP(=O)(O)OP(=O)(O)OC[C@H]2O[C@@H](n3cnc4c(N)ncnc43)[C@H](O)[C@@H]2OP(=O)(O)O)cc(OC)c1O [sinapyl-CoA]
,62.6,COc1cc(/C=C/C(=O)SCCNC(=O)CCNC(=O)[C@H](O)C(C)(C)COP(=O)(O)OP(=O)(O)OC[C@H]2O[C@@H](n3cnc4c(N)ncnc43)[C@H](O)[C@@H]2OP(=O)(O)O)ccc1O [feruloyl CoA]
